According to patent publication US11963985B2, “Coral composite extract, composition including the same and method of producing the same” (National Sun Yat-Sen University, priority 2018, dated 2024):

Experiment: partition coefficient (log P) of EXC-B
Type: physicochemical
Protocol: Next, as STEP 103 depicts, the crude extraction step is performed on the coral staring material to obtain a crude extract, in which a first solvent is applied. In one embodiment, there is no limitation of the kind of the first solvent. However, the one having a polarity index P′ value closer to a polarity index P′ value of the coral composite extract is the better. For example, a partition coefficient (log P) of EXC-B is about 0.9 and an octanol-water partition coefficient (Clog P) of EXC-B is about 3.5568. Therefore, the polarity index P′ value of the first solvent can be 0.1 to 6.0, but 1.0 to 5.4 is better.

Substance: excavatolide B [EXC-B]
- partition coefficient (log P): about 0.9
